One may read the EC50 as the concentration at which the effect is half-maximal. Broadly, the IC50 is the concentration at which inhibition is half-maximal.

Where a name gives a salt, the structure may show the parent alone. Read-outs that look alike come from different tables or passages of the source. Some results are limits rather than exact numbers.

Experiment [1] relates to SW620 human colon cancer cells. Kind of experiment: SW620 Cell Viability Assay. The following applies: CellTiter-Glo, 4 days incubation, read-out: Cellular EC50 (μM) SW620. Type of experiment: cell-based. A digest of the protocol:
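SW620 human colon cancer cells, some attached 24 h then serum-starved 48 h before dosing; compounds prepared in serum-supplemented medium. Cells incubated with compound 4 days at 37 °C, 5% CO2, and viability measured by CellTiter-Glo luminescence.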
(In general: In ATP-based viability assays light output follows the ATP content of the culture.)

The next experiment addresses T1, Human DYRK1A (Homo sapiens, UniProt Q13627).
T1 construct: purchased Invitrogen PV3997
Kind of experiment: DYRK1A Kinase TR-FRET (IMAP-Tb) Assay. To be noted: TR-FRET (IMAP-Tb); ATP 70 μM; 37° C. 60 minutes; read-out: Enzyme IC50 (μM) DYRK1A. Type of experiment: biochemical. The essentials: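 Recombinant human DYRK1A phosphorylated fluorescent substrate peptide (1.0 μM) with ATP in 10 mM HEPES pH 7.0, 50 mM NaCl, 5 mM MgCl2, 1 mM DTT, 1 mM NaVO4, 0.02% BSA for 60 min at 37 °C. Phosphopeptide detected by IMAP terbium TR-FRET; IC50 reported.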
(In TR-FRET formats the signal depends on donor and acceptor labels being close together.)

The target in the next experiment is T2, Human DYRK1B (Homo sapiens, UniProt Q9Y463).
T2 construct: purchased Invitrogen PR8350B (former PV4649)
T2 sequence (Q9Y463 whole entry): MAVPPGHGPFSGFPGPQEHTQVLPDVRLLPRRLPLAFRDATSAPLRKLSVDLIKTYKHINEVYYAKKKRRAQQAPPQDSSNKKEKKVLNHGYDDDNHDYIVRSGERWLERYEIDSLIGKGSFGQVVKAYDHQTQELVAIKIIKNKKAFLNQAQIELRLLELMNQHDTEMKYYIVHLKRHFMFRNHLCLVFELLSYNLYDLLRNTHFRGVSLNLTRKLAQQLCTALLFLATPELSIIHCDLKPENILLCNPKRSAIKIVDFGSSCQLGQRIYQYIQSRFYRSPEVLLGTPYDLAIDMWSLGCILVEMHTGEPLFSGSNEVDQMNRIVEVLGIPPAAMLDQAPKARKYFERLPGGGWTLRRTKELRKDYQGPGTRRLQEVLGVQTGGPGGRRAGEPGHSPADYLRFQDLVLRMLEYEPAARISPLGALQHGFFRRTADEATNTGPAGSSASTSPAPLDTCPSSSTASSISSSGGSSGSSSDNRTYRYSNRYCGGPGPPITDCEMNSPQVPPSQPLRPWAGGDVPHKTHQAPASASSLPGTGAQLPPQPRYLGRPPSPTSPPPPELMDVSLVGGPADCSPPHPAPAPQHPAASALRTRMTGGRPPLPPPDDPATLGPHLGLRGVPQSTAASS
Kind of experiment: DYRK1B Kinase TR-FRET (IMAP-Tb) Assay. Type of experiment: biochemical. The following applies: TR-FRET (IMAP-Tb); ATP 70 μM; 37° C. 60 minutes; read-out: Enzyme IC50 (μM) DYRK1B.

Regarding `COc1ncc2cc(C(=O)Nc3cc(C(=O)NCc4cccc(Cl)c4)ccc3Cl)c(=O)[nH]c2n1` [Example 54, 2-Methoxy-7-oxo-7,8-dihydro-pyrido[2,3-d]pyrimidine-6-carboxylic acid [2-chloro-5-(3-chloro-benzylcarbamoyl)-phenyl]-amide], the EC50 in experiment [1] (Homo sapiens, SW-620, 96 h) was determined as 1.93 µM. For the same molecule, the IC50 at Human DYRK1A was determined as 0.0215 µM; at Human DYRK1B, 0.0677 µM.

Consider `O=C(NCc1cccc(Cl)c1)c1ccc(Cl)c(NC(=O)c2cc3cnc(NC4CCNCC4)nc3[nH]c2=O)c1` [Example 125, N-(2-Chloro-5-(3-chlorobenzylcarbamoyl)phenyl)-7-oxo-2-(piperidin-4-ylamino)-7,8-dihydropyrido[2,3-d]pyrimidine-6-carboxamide hydrochloride], for which the 50% effective concentration (EC50) in experiment [1] (Homo sapiens, SW-620, 96 h) came out at 1.5 µM. The figures for the concentration for half-maximal inhibition (IC50) on Human DYRK1A and on Human DYRK1B were 0.0303 µM and 0.206 µM, respectively.

As to `CN1CCN(CCCNc2ncc3cc(C(=O)Nc4cc(C(=O)NC(CN)c5ccccc5)ccc4Cl)c(=O)[nH]c3n2)CC1` (stereo not drawn) [Example 123, N-(5-(2-Amino-1-phenylethylcarbamoyl)-2-chlorophenyl)-2-(3-(4-methylpiperazin-1-yl)propylamino)-7-oxo-7,8-dihydropyrido[2,3-d]pyrimidine-6-carboxamide hydrochloride], the EC50 in experiment [1] (hydrochloride) was 0.319 µM. In addition, the IC50 was determined as 0.0067 µM at Human DYRK1A and 0.0082 µM at Human DYRK1B.

`COc1ncc2cc(C(=O)Nc3cc(C(=O)NCCc4ccccc4)ccc3Cl)c(=O)[nH]c2n1` [Example 70, 2-Methoxy-7-oxo-7,8-dihydro-pyrido[2,3-d]pyrimidine-6-carboxylic acid (2-chloro-5-phenethylcarbamoyl-phenyl)-amide]: the 50% effective concentration (EC50) in experiment [1] (Homo sapiens, SW-620, 96 h) was 2.3 µM. The IC50 at Human DYRK1A is 0.352 µM; at Human DYRK1B, 0.204 µM.

Regarding `O=C(NCc1cccc(Cl)c1)c1ccc(Cl)c(NC(=O)c2cc3cnc(NCC(O)CO)nc3[nH]c2=O)c1` (stereo not drawn) [Example 126, N-(2-Chloro-5-(3-chlorobenzylcarbamoyl)phenyl)-2-(2,3-dihydroxypropylamino)-7-oxo-7,8-dihydropyrido[2,3-d]pyrimidine-6-carboxamide], the EC50 in experiment [1] (Homo sapiens, SW-620, 96 h) is over 10 µM. For the same molecule, the concentration for half-maximal inhibition (IC50) on Human DYRK1A was 0.0197 µM; on Human DYRK1B, 0.059 µM.

Consider `O=C(NCc1cccc(Cl)c1)c1ccc(Cl)c(NC(=O)c2cc3cnc(N[C@H]4CC[C@@H](O)CC4)nc3[nH]c2=O)c1` [Example 95, 2-(4-Hydroxy-cyclohexylamino)-7-oxo-7,8-dihydro-pyrido[2,3-d]pyrimidine-6-carboxylic acid [2-chloro-5-(3-chloro-benzylcarbamoyl)-phenyl]amide], for which the half-maximal effective concentration (EC50) in experiment [1] (Homo sapiens, SW-620, 96 h) came to 0.406 µM. The figures for the IC50 at Human DYRK1A and on Human DYRK1B were 0.0257 µM and 0.012 µM, respectively.

On to `COc1ncc2cc(C(=O)Nc3cc(C(=O)N[C@H](CN)c4cccc(Cl)c4)ccc3Cl)c(=O)[nH]c2n1` [Example 135, 2-Methoxy-7-oxo-7,8-dihydro-pyrido[2,3-d]pyrimidine-6-carboxylic acid {5-[(S)-2-amino-1-(3-chloro-phenyl)-ethylcarbamoyl]-2-chloro-phenyl}-amide], for which the EC50 in experiment [1] (Homo sapiens, SW-620, 96 h) was determined as 0.523 µM. Also, the half-inhibitory concentration (IC50) at Human DYRK1A was determined as 0.0109 µM; at Human DYRK1B, 0.0457 µM.

`CN1CCN(CCCNc2ncc3cc(C(=O)Nc4cc(C(=O)NC(CN)c5ccccc5)ccc4Cl)c(=O)[nH]c3n2)CC1` (stereo not drawn) [Example 122, N-(5-(2-Amino-1-phenylethylcarbamoyl)-2-chlorophenyl)-2-(3-(4-methylpiperazin-1-yl)propylamino)-7-oxo-7,8-dihydropyrido[2,3-d]pyrimidine-6-carboxamide]: the concentration giving a half-maximal response (EC50) in experiment [1] (Homo sapiens, SW-620, 96 h) was 0.359 µM. In addition, the IC50 is 0.012 µM at Human DYRK1A and 0.009 µM on Human DYRK1B.

With `COc1ncc2cc(C(=O)Nc3cc(C(=O)NCC[C@@H](N)c4ccccc4)ccc3Cl)c(=O)[nH]c2n1` [Example 184, (R)—N-(5-(3-Amino-3-phenylpropylcarbamoyl)-2-chlorophenyl)-2-methoxy-7-oxo-7,8-dihydropyrido[2,3-d]pyrimidine-6-carboxamide], in experiment [1] (Homo sapiens, SW-620, 96 h), the half-maximal effective concentration (EC50) is 5.09 µM. Besides, the results for the IC50 on Human DYRK1A and on Human DYRK1B were 0.331 µM and 0.691 µM, respectively.

On to `C[C@@H](NC(=O)c1ccc(Cl)c(NC(=O)c2cc3cnc(N4CCN(C)CC4)nc3[nH]c2=O)c1)c1ccccc1` [Example 174, 2-(4-Methyl-piperazin-1-yl)-7-oxo-7,8-dihydro-pyrido[2,3-d]pyrimidine-6-carboxylic acid [2-chloro-5-((R)-1-phenyl-ethylcarbamoyl)-phenyl]-amide], for which the EC50 in experiment [1] (Homo sapiens, SW-620, 96 h) was 0.512 µM. The IC50 is 0.0873 µM on Human DYRK1A and 0.207 µM at Human DYRK1B.

With `CSc1ncc2cc(C(=O)Nc3cc(C(=O)NC(CN)c4ccccc4)ccc3Cl)c(=O)[nH]c2n1` (stereo not drawn) [Example 105, N-(5-(2-amino-1-phenylethylcarbamoyl)-2-chlorophenyl)-2-(methylthio)-7-oxo-7,8-dihydropyrido[2,3-d]pyrimidine-6-carboxamide], in experiment [1] (Homo sapiens, SW-620, 96 h), the 50% effective concentration (EC50) amounted to 0.296 µM. Further, the 50% inhibitory concentration (IC50) at Human DYRK1A was determined as 0.0096 µM; on Human DYRK1B, 0.0099 µM.

Consider `CN1CCN(CCNc2ncc3cc(C(=O)Nc4cc(C(=O)NCc5cccc(Cl)c5)ccc4Cl)c(=O)[nH]c3n2)CC1` [Example 99, 2-[2-(4-Methyl-piperazin-1-yl)-ethylamino]-7-oxo-7,8-dihydro-pyrido[2,3-d]pyrimidine-6-carboxylic acid [2-chloro-5-(3-chloro-benzylcarbamoyl)-phenyl]amide], for which the EC50 in experiment [1] stood at 0.0276 µM. Besides, the 50% inhibitory concentration (IC50) was determined as 0.0202 µM on Human DYRK1A and 0.0347 µM at Human DYRK1B.

`CN1CCN(CCCNc2ncc3cc(C(=O)Nc4cc(C(=O)NCc5cccc(Cl)c5)ccc4Cl)c(=O)[nH]c3n2)CC1` [Example 102, 2-[3-(4-Methyl-piperazin-1-yl)-propylamino]-7-oxo-7,8-dihydro-pyrido[2,3-d]pyrimidine-6-carboxylic acid [2-chloro-5-(3-chloro-benzylcarbamoyl)-phenyl]-amide hydrochloride]: the concentration giving a half-maximal response (EC50) in experiment [1] (hydrochloride) was 0.0531 µM. For the same molecule, the figures for the concentration for half-maximal inhibition (IC50) on Human DYRK1A and on Human DYRK1B were 0.0356 µM and 0.047 µM, respectively.

`NCCC(NC(=O)c1ccc(Cl)c(NC(=O)c2cc3cncnc3[nH]c2=O)c1)c1ccccc1` (stereo not drawn) [Example 152, N-(5-(3-Amino-1-phenylpropylcarbamoyl)-2-chlorophenyl)-7-oxo-7,8-dihydropyrido[2,3-d]pyrimidine-6-carboxamide hydrochloride]: the concentration giving a half-maximal response (EC50) in experiment [1] (Homo sapiens, SW-620, 96 h) stood at 2.68 µM. Besides, the half-inhibitory concentration (IC50) on Human DYRK1A is 0.066 µM; at Human DYRK1B, 0.033 µM.

For the molecule `CC(=O)N1CCN(c2ncc3cc(C(=O)Nc4cc(C(=O)NCc5cccc(Cl)c5)ccc4Cl)c(=O)[nH]c3n2)CC1` [Example 108, 2-(4-Acetylpiperazin-1-yl)-N-(2-chloro-5-(3-chlorobenzylcarbamoyl)phenyl)-7-oxo-7,8-dihydropyrido[2,3-d]pyrimidine-6-carboxamide], the EC50 in experiment [1] (Homo sapiens, SW-620, 96 h) was found to be 0.528 µM. Also, the IC50 worked out at 0.114 µM at Human DYRK1A and 0.056 µM on Human DYRK1B.

Consider `COc1nc(C)c2cc(C(=O)Nc3cc(C(=O)NC(CN)c4ccccc4)ccc3Cl)c(=O)[nH]c2n1` (stereo not drawn) [Example 170, N-(5-(2-Amino-1-phenylethylcarbamoyl)-2-chlorophenyl)-2-methoxy-4-methyl-7-oxo-7,8-dihydropyrido[2,3-d]pyrimidine-6-carboxamide 2,2,2-trifluoroacetate], for which, in experiment [1] (Homo sapiens, SW-620, 96 h), the EC50 amounted to 3.21 µM. Also, the half-maximal inhibitory concentration (IC50) on Human DYRK1A worked out at 0.0164 µM; on Human DYRK1B, 0.117 µM.

On to `O=C(NCc1cccc(Cl)c1)c1ccc(Cl)c(NC(=O)c2cc3cnc(N4CCOCC4)nc3[nH]c2=O)c1` [Example 86, 2-Morpholin-4-yl-7-oxo-7,8-dihydro-pyrido[2,3-d]pyrimidine-6-carboxylic acid [2-chloro-5-(3-chloro-benzylcarbamoyl)-phenyl]-amide], for which the 50% effective concentration (EC50) in experiment [1] (Homo sapiens, SW-620, 96 h) is over 10 µM. Also, the IC50 at Human DYRK1A turned out to be 0.07 µM; on Human DYRK1B, 3.25 µM.

Take `NCCC(NC(=O)c1ccc(Cl)c(NC(=O)c2cc3cnc(N4C[C@H]5CC[C@@H](C4)O5)nc3[nH]c2=O)c1)c1ccccc1` (stereo partly drawn) [Example 183, 2-(1R,5S)-8-Oxa-3-aza-bicyclo [3.2.1]oct-3-yl-7-oxo-7,8-dihydro-pyrido[2,3-d]pyrimidine-6-carboxylic acid [5-(3-amino-1-phenyl-propylcarbamoyl)-2-chloro-phenyl]amide; hydrochloride]: the EC50 in experiment [1] (Homo sapiens, SW-620, 96 h) was 0.027 µM. Also, the concentration for half-maximal inhibition (IC50) at Human DYRK1A was determined as 0.0046 µM; on Human DYRK1B, 0.0077 µM.

With `O=C(NCc1cccc(F)c1)c1cc(NC(=O)c2cc3cnc(N4CCOCC4)nc3[nH]c2=O)c(Cl)cc1F` [Example 162, 2-Morpholin-4-yl-7-oxo-7,8-dihydro-pyrido[2,3-d]pyrimidine-6-carboxylic acid [2-chloro-4-fluoro-5-(3-fluoro-benzylcarbamoyl)-phenyl]-amide], in experiment [1] (Homo sapiens, SW-620, 96 h), the concentration giving a half-maximal response (EC50) was over 10 µM. The results for the half-inhibitory concentration (IC50) at Human DYRK1A and at Human DYRK1B were 0.0432 µM and 0.135 µM, respectively.

In the case of `O=C(NCc1cccc(F)c1)c1ccc(Cl)c(NC(=O)c2cc3cnc(N4CCOCC4)nc3[nH]c2=O)c1` [Example 161, 2-Morpholin-4-yl-7-oxo-7,8-dihydro-pyrido[2,3-d]pyrimidine-6-carboxylic acid [2-chloro-5-(3-fluoro-benzylcarbamoyl)-phenyl]-amide], in experiment [1] (Homo sapiens, SW-620, 96 h), the EC50 is over 10 µM. Also, the results for the IC50 on Human DYRK1A and at Human DYRK1B were 0.0462 µM and 0.0472 µM, respectively.
